Results from patent publication US9833439B2, “ERK inhibitors for use in treating spinal muscular atrophy” (UNIVERSITE PARIS DESCARTES, priority 2011, dated 2017).

Assays:
[1] = test system: SMN2 promoter CRE sites 1 and 2; experiment: ChIP of Phospho-Elk-1 and Phospho-CREB on SMN2 promoter CRE sites in ventral lumbar spinal cord; format: in vivo, mice; conditions: SMA spinal cords, intrathecal NMDA
Excerpt: The knockout-transgenic SMA-like mice (Smn^−/−, SMN2^+/+) were purchased from the Jackson Laboratory (Bar Harbor, Me.) and genotyped as previously described^15. Vehicle-treated group, NMDA-treated group, U0126-treated group and AZD6244-treated group of type 1 SMA-like mice were randomly constituted in a blind systematic manner to minimize bias. The control mice were heterozygous knock-out for Smn with the human SMN2 transgene (Smn^−/+, to SMN2^+/+).
In order to evaluate phospho-Elk-1 and phospho-CREB role on Smn2 promoter, P1 neonatal control and SMA-like mice, were either injected intrathecally with 5 pmol of N-methyl-D-aspartic Acid 100 μM (NMDA, Sigma, Saint Quentin Fallavier, France) in 0.5 μl/g of 0.9% NaCl dyed in blue Evans per gram. […]
Ventral lumbar Spinal Cord samples were chopped into small pieces with a scalpel and were fixed for 15 min with 1% formaldehyde. […] Lysates were cleared by centrifugation and DNA concentration was determined using a nanodrop spectrophotometer. […]
Quantitative real time PCR was performed with standard protocols using SYBR®Green ROX Mix (ABgene, Courtaboeuf, France) as a fluorescent detection dye in ABI PRISM® 7000 in a final volume of 10 μl which also contains 300 nM of primers (Operon, Cologne, Germany)
The relative amounts of DNA in samples were determined on the basis of the threshold cycle for each PCR product (Ct).

SMN transcripts = conditions: very severe SMA-like mice; splicing pattern not modified; cited from earlier work
AKT = conditions: SMA mice, oral treatment
SMA-like mice [2] = experiment: Life span of severe SMA-like mice; format: in vivo; conditions: oral treatment
SMN protein = format: in vivo, mice; conditions: oral treatment
SMA-like mice [3] = experiment: Body weight of SMA-like mice; format: in vivo; conditions: oral treatment
Method: The knockout-transgenic SMA-like mice (Smn^−/−, SMN2^+/+) were purchased from the Jackson Laboratory (Bar Harbor, Me.) and genotyped as previously described^15. […] The control mice were heterozygous knock-out for Smn with the human SMN2 transgene (Smn^−/+, to SMN2^+/+). […] These mice were compared to control and SMA-like mice either injected from P1 with 0.5 μl/g of 0.9% NaCl 1% DMSO dyed in blue Evans or orally treated with 2 μl/g of 0.9% NaCl 1% DMSO. Body weight and life span recordings were performed every day until the death of the animal. The animals were considered as dead when mice were no longer able to stand up 20 sec after having been placed on their sides.

Compound	ratio of CREB and Elk-1 binding on the CRE sites [1]	total amount of SMN transcripts in the SMA spinal cord (SMN transcripts)	AKT activation (AKT)	life span of SMA mice (SMA-like mice [2])	SMN expression in the spinal cord of SMA mice (SMN protein)	body weight (SMA-like mice [3])
CN[C@H](CC(=O)O)C(=O)O [NMDA, N-methyl-D-aspartic Acid]	completely reversed	increased	–	–	–	–
Cn1cnc2c(F)c(Nc3ccc(Br)cc3Cl)c(C(=O)NOCCO)cc21 [Selumetinib, 6-(4-bromo-2-chloroanilino)-7-fluoro-N-(2-hydroxyethoxy)-3-methylbenzimidazole-5-carboxamide]	–	–	activation	remarkable increase	activation	progressive gain
